Measurements taken from US20230066011A1, “PYRROLOPYRIMIDINE DERIVATIVE, AND PHARMACEUTICAL COMPOSITION FOR PREVENTING OR TREATING PROTEIN KINASE-RELATED DISEASE COMPRISING SAME AS ACTIVE INGREDIENT” (VORONOI CO., LTD., priority 2019, published 2023).

Columns and labels:
Assay type in all cases: biochemical
[1] = biological target: T1, human GST-DYRK1A (Homo sapiens, UniProt Q13627); assay: GST-DYRK1A enzyme inhibition, ADP-Glo kinase assay; conditions: ATP 10 μM, GST-DYRK1A full length, read-out: DYRK1 IC50
T1 construct: purified human GST-DYRK1A (full length, Thermo Scientifics) enzyme; purchased Thermo Scientifics
In short: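 Full-length human GST-DYRK1A (10 ng) with 10 μM ATP and specific substrate in 40 mM Tris-HCl pH 7.4, 20 mM MgCl2, 0.5 mg/mL BSA, 50 μM DTT, 1 h at 25 °C. ADP formation read by ADP-Glo luminescence relative to solvent control; IC50 from three data sets.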

[2] = biological target: LRRK2 (G2019S) (Homo sapiens, UniProt Q5S007, G2019S); assay: LRRK2 G2019S enzyme inhibition, ADP-Glo kinase assay; set-up: purchased SignalChem L10-12GG; conditions: ATP 25 μM
Sequence of LRRK2 (G2019S) (Q5S007 970-2527 G2019S limits assumed): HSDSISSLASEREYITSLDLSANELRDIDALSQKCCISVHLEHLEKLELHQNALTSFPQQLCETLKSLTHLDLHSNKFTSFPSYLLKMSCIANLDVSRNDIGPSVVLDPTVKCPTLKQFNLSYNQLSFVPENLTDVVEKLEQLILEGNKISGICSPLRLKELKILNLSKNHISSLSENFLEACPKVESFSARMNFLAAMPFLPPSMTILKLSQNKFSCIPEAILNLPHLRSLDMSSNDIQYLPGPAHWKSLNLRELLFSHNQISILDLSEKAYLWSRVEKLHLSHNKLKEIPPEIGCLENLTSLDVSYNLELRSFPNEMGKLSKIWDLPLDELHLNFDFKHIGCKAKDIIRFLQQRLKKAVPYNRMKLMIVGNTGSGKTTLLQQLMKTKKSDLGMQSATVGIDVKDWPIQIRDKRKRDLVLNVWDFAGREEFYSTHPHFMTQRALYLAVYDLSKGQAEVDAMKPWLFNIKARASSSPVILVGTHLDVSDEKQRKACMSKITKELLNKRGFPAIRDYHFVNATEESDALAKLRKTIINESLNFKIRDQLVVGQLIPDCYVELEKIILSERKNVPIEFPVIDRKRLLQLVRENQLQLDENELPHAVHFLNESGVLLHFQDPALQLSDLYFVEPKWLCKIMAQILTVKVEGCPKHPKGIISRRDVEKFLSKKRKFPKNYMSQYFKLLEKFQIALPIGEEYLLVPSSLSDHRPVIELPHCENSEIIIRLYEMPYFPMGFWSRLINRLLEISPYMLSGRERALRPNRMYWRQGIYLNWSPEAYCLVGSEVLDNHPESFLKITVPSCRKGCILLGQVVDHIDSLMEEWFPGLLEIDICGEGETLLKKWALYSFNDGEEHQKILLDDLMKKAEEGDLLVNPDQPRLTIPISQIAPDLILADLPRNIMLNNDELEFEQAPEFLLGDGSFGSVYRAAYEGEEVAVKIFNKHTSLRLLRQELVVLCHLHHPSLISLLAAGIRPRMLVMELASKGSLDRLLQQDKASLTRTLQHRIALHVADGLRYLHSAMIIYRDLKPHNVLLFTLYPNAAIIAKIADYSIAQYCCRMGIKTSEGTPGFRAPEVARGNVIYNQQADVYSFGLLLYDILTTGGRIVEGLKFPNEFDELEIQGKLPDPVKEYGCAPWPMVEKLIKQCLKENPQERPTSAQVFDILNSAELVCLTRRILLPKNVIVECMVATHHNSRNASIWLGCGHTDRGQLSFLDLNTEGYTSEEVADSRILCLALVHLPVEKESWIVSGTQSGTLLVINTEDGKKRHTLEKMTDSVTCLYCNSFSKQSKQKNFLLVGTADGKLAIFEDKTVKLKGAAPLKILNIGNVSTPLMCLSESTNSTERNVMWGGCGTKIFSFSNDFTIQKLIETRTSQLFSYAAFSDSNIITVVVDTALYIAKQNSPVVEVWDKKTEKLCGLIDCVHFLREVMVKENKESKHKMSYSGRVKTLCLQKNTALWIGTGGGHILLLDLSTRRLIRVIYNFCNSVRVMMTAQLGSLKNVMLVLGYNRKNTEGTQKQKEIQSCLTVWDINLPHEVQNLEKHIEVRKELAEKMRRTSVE
Description: To evaluate an inhibitory activity of the compound according to the present invention against LRRK2, LRRK2 (G2019S), DYRK1, CLK1, and TTK kinases, experiments were performed as follows.
Each of the Example compounds was reacted with a purified human LRRK2 G2019S (L10-12GG, SignalChem) enzyme to evaluate an ability to inhibit an enzyme using a method as described below. A composition of 40 mM Tris-HCl (pH 7.4), 20 mM MgCl2, 0.5 mg/mL BSA, and 50 μM DTT was used as a reaction buffer, and all reactions of test substances were performed in the reaction buffer. Each of the compounds was diluted […] from a 10 mM DMSO stock using a serial dilution method, and enzyme activities were measured at final compound concentrations of 50, 10, 2, 0.4, 0.08, 0.016, 0.0032, 0.00064, 0.000128, 0.0000256, 0.00000512, and 0.000001024 μM. In the test, purified ATP (25 μM) and an enzyme substrate (0.2 μg) were reacted with a human LRRK2 G2019S (16 ng) enzyme at 25° C. for 2 hours, and the enzyme activities were then determined using an in vitro ADP-Glo™ kinase assay (Promega). An enzyme-activity reaction solution, an ADP-Glo reaction solution, and an enzyme-ability detection solution were reacted at a ratio of 2:2:1 to measure a degree of inhibition of the enzyme activity with luminescence. The degree of inhibition of the enzyme activity according to the treatment concentration of each of the compounds was calculated based on the fluorescence of the enzyme activity of the solvent control which was not treated with the compound. In this case, the concentration of each of the compounds inhibiting 50% of the enzyme activity was determined to be an IC50 (nM) value, and calculated using Prism (Version 5.01; GraphPad) software.

[3] = biological target: T2, human GST-CLK1 (Homo sapiens, UniProt P49759); assay: GST-CLK1 enzyme inhibition, ADP-Glo kinase assay; conditions: ATP 10 μM, GST-CLK1 129-end
T2 construct: purified human GST-CLK1 (129-end, SignalChem) enzyme; purchased SignalChem
T2 sequence (P49759 129-484 limits assumed): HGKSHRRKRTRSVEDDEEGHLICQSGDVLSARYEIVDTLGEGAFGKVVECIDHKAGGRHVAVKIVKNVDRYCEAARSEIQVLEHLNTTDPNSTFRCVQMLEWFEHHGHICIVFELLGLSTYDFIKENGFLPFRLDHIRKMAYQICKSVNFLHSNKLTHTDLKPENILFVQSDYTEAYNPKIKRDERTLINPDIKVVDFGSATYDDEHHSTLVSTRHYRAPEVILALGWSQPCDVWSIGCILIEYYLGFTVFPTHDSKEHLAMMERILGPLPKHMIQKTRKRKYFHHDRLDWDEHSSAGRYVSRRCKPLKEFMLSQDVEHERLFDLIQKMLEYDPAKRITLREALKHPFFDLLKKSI
In short: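 Human GST-CLK1 (129-end, 3 ng) reacted with substrate and 10 μM ATP for 1 h at 25° C in 40 mM Tris-HCl pH 7.4, 20 mM MgCl2, 0.5 mg/mL BSA, 50 μM DTT. ADP-Glo luminescence was normalised to solvent control; IC50 (nM) from 3 data sets.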

SMILES	IC50 [1]	IC50 [2]	IC50 [3]
CCNc1nc(Nc2ccc(P3(=O)CCN(C4CC4)CC3)cc2OC)nc2[nH]cc(C(F)(F)F)c12 [Example 398, 1-cyclopropyl-4-(4-((4-(ethylamino)-5-(trifluoromethyl)-7H-pyrrolo[2,3-d]pyrimidin-2-yl)amino)-3-methoxyphenyl)-1,4-azaphosphinane 4-oxide]	101 to 300 nM	< 100 nM	< 100 nM
COc1cc(P(C)(C)=O)ccc1Nc1nc(NCC2CCCC2)c2c(C(F)(F)F)c[nH]c2n1 [Example 392, (4-((4-((cyclo-pentylmeth-yl)amino)-5-(trifluoromethyl)-7H-pyrrolo[2,3-d]pyrimidin-2-yl)amino)-3-methoxyphenyl) dimethyl-phosphine oxide]	301 to 1000 nM	301 to 1000 nM	301 to 1000 nM
COc1cc(S(=O)(=O)N2CCOCC2)ccc1Nc1nc(NCC2CCCC2)c2cc[nH]c2n1 [Example 40, N^4-(cyclopentylmethyl)-N^2-(2-methoxy-4-(morpholinosulfonyl)phenyl)-7H-pyrrolo[2,3-d]pyrimidine-2,4-diamine 2,2,2-trifluoroacetate]	301 to 1000 nM	301 to 1000 nM	301 to 1000 nM
N#Cc1c[nH]c2nc(Nc3ccc(C(=O)N4CCN(C5COC5)CC4)c4c3OCCO4)nc(NC3CCC3)c12 [Example 289, 4-(cyclo-butylamino)-2-((8-(4-(oxetan-3-yl)piperazine-1-carbonyl)-2,3-dihydrobenzo[b] [1,4]dioxin-5-yl)amino)-7H-pyrrolo[2,3-d]pyrimidine-5-carbonitrile]	301 to 1000 nM	< 100 nM	< 100 nM
CCNc1nc(Nc2ccc(P3(=O)CCN(Cc4ccc(OC)cc4OC)CC3)cn2)nc2[nH]cc(C(F)(F)F)c12 [Example 153, 1-(2,4-dimethoxybenzyl)-4-(6-((4-(ethylamino)-5-(trifluoromethyl)-7H-pyrrolo[2,3-d]pyrimidin-2-yl)amino)pyridin-3-yl)-1,4-azaphosphinane 4-oxide]	< 100 nM	< 100 nM	< 100 nM
CC[C@@H](C)Nc1nc(Nc2ccc(S(=O)(=O)N3CCOCC3)cc2OC)nc2[nH]ccc12 [Example 59, (R)-N^4-(sec-butyl)-N^2-(2-methoxy-4-(morpholinosulfonyl)phenyl)-7H-pyrrolo[2,3-d]pyrimidine-2,4-diamine]	301 to 1000 nM	< 100 nM	301 to 1000 nM
COc1cc(S(=O)(=O)N2CCOCC2)ccc1Nc1nc(NC2CCCC2)c2cc[nH]c2n1 [Example 25, N^4-cyclopentyl-N^2-(2-methoxy-4-(morpholinosulfonyl)phenyl)-7H-pyrrolo[2,3-d]pyrimidine-2,4-diamine 2,2,2-trifluoroacetate]	301 to 1000 nM	< 100 nM	301 to 1000 nM
COc1cc(S(=O)(=O)N2CCOCC2)ccc1Nc1nc(NC(C)C)c2cc[nH]c2n1 [Example 13, N^4-isopropyl-N^2-(2-methoxy-4-(morpholinosulfonyl)phenyl)-7H-pyrrolo[2,3-d]pyrimidine-2,4-diamine 2,2,2-trifluoroacetate]	301 to 1000 nM	< 100 nM	301 to 1000 nM

Second part, the compound after the results:

IC50 [1]	IC50 [2]	IC50 [3]	SMILES
< 100 nM	< 100 nM	< 100 nM	CCCCNc1nc(Nc2ccc(C(=O)N3CCN(C4COC4)CC3)c3c2OCCO3)nc2[nH]cc(C(F)(F)F)c12 [Example 429, (8-((4-(butylamino)-5-(trifluoromethyl)-7H-pyrrolo[2,3-d]pyrimidin-2-yl)amino)-2,3-dihydrobenzo[b] [1,4]dioxin-5-yl) (4-(oxetan-3-yl)piperazin-1-yl)methanone]
301 to 1000 nM	< 100 nM	< 100 nM	O=C(c1ccc(Nc2nc(N[C@H]3CCOC3)c3c(C(F)(F)F)c[nH]c3n2)c2c1OCCO2)N1CCOCC1 [Example 209, (S)-morpholino(8-((4-((tetrahydrofuran-3-yl)amino)-5-(trifluoromethyl)-7H-pyrrolo[2,3-d]pyrimidin-2-yl)amino)-2,3-dihydrobenzo[b][1,4]dioxin-5-yl)methanone]
301 to 1000 nM	< 100 nM	301 to 1000 nM	CC(C)CNc1nc(Nc2ccc(C(=O)N3CCOCC3)c3c2OCC3)nc2[nH]cc(C(F)(F)F)c12 [Example 447, (7-((4-(iso-butylamino)-5-(trifluoromethyl)-7H-pyrrolo[2,3-d]pyrimidin-2-yl)amino)-2,3-dihydrobenzo-furan-4-yl) (morpholino) methanone]
301 to 1000 nM	< 100 nM	301 to 1000 nM	CC[C@H](C)Nc1nc(Nc2ccc(P(C)(C)=O)cc2OC)nc2[nH]cc(C(F)(F)F)c12 [Example 385, (S)-(4-((4-(sec-butylamino)-5-(trifluoromethyl)-7H-pyrrolo[2,3-d]pyrimidin-2-yl)amino)-3-methoxyphenyl) dimethyl-phosphine oxide]
301 to 1000 nM	< 100 nM	301 to 1000 nM	O=C(c1ccc(Nc2nc(NCC3CCCC3)c3c(C(F)(F)F)c[nH]c3n2)c2c1OCCO2)N1CCN(C2COC2)CC1 [Example 425, (8-((4-((cyclo-pentylmeth-yl)amino)-5-(trifluoromethyl)-7H-pyrrolo[2,3-d]pyrimidin-2-yl)amino)-2,3-dihydrobenzo[b] [1,4]dioxin-5-yl) (4-(oxetan-3-yl)piperazin-1-yl)methanone]
301 to 1000 nM	< 100 nM	< 100 nM	CC(C)Nc1nc(Nc2ccc(C(=O)N3CCOCC3)c3c2OCC3)nc2[nH]cc(C(F)(F)F)c12 [Example 449, (7-((4-(isopropylamino)-5-(trifluoromethyl)-7H-pyrrolo[2,3-d]pyrimidin-2-yl)amino)-2,3-dihydrobenzo-furan-4-yl) (morpholino) methanone]
301 to 1000 nM	< 100 nM	301 to 1000 nM	CC(C)CNc1nc(Nc2ccc(C(=O)N3CCOCC3)c3c2OCCO3)nc2[nH]ccc12 [Example 44, (8-((4-(isobutylamino)-7H-pyrrolo[2,3-d]pyrimidin-2-yl)amino)-2,3-dihydrobenzo[b][1,4]dioxin-5-yl)(morpholino)methanone]
301 to 1000 nM	< 100 nM	301 to 1000 nM	CC[C@H](C)Nc1nc(Nc2ccc(C(=O)N3CCOCC3)c3c2OCC3)nc2[nH]cc(C(F)(F)F)c12 [Example 451, (S)-(7-((4-(sec-butylamino)-5-(trifluoromethyl)-7H-pyrrolo[2,3-d]pyrimidin-2-yl)amino)-2,3-dihydrobenzo-furan-4-yl) (morpholino) methanone]
< 100 nM	< 100 nM	< 100 nM	CC(C)Nc1nc(Nc2ccc(C(=O)N3CCC(N4CCOCC4)CC3)c3c2OCC3)nc2[nH]cc(C#N)c12 [Example 353, 4-(isopropylamino)-2-((4-(4-morpholino-piperidine-1-carbonyl)-2,3-dihydro-benzofuran-7-yl)amino)-7H-pyrrolo[2,3-d]pyrimidine-5-carbonitrile]
301 to 1000 nM	< 100 nM	< 100 nM	O=C(c1ccc(Nc2nc(NCC3CC3)c3c(C(F)(F)F)c[nH]c3n2)c2c1CCO2)N1CCOCC1 [Example 457, (7-((4-((cyclo-propylmeth-yl)amino)-5-(trifluoromethyl)-7H-pyrrolo[2,3-d]pyrimidin-2-yl)amino)-2,3-dihydrobenzo-furan-4-yl) (morpholino) methanone]
< 100 nM	< 100 nM	< 100 nM	CC[C@@H](C)Nc1nc(Nc2ccc(C(=O)N3CCC(N4CCOCC4)CC3)c3c2OCC3)nc2[nH]cc(C#N)c12 [Example 355, (R)-4-(sec-butylamino)-2-((4-(4-morpho-linopiperidine-1-carbonyl)-2,3-dihydro-benzofuran-7-yl)amino)-7H-pyrrolo[2,3-d]pyrimidine-5-carbonitrile]
301 to 1000 nM	< 100 nM	301 to 1000 nM	CC[C@H](C)Nc1nc(Nc2ccc(C(=O)N3CCOCC3)c3c2OCC3)nc2[nH]cc(C#N)c12 [Example 356, (S)-4-(sec-butylamino)-2-((4-(morpholine-4-carbonyl)-2,3-dihydro-benzofuran-7-yl)amino)-7H-pyrrolo[2,3-d]pyrimidine-5-carbonitrile]
